In patent publication US20200384003A1, “TRITERPENOID-CONTAINING PHARMACEUTICAL COMPOSITION AND USE THEREOF” (SHANGHAI LANMU CHEMICALS CO., LTD., priority 2017, published 2020):

Experiments:
[1] = biological target: T1, mutated lens protein (αB-crystallin R120G) (Homo sapiens, UniProt P02511, R120G); assay: Intracellular mutated lens protein aggregation inhibition experiment in transfected HeLa cells (Example 21); type: cell-based; conditions: 10 μM, treated 3.5 hours, then 6.5 h normal medium, fewer + = better
T1 construct: expressed in transfected cells; host or cells: HeLa
T1 sequence (P02511 1-175 R120G): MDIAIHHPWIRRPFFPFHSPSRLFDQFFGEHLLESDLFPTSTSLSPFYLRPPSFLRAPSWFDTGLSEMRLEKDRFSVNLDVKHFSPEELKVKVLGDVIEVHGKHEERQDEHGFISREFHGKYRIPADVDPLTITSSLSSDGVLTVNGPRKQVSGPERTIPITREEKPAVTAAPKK
Method: In this example, apart of the specific compounds obtained in Example 19 and Example 20 were selected for intracellular mutated lens protein (αB-crystallin R120G) aggregation inhibition experiment (experimental method was described in Chinese patent CN201580057679). The aggregation inhibition activities of compound I and compound II in the present invention on lens protein mutants were evaluated to screen a compound which was effective in treating related disease such as cataract.
The tumor cell line HeLa was selected as a host cell transfected with the mutant lens protein (αB-crystallin […]) expression plasmid, the medium was DMEM with […], and the culture conditions were 37° C., saturated humidity and 5% carbon dioxide cell incubator. Mycoplasma was negative. The transfection process is that the appropriate number of HeLa cells were inoculated on the pre-coated slides. When fully adherent cells grew to about 75% cell density, the expression vector was transfected with liposome. After 4 hours of transfection, the medium was changed to normal medium. Then the HeLa cells were cultured in the cell incubator for 13 hours to induce the expression of exogenous mutant lens protein. After changing the medium, the replaced new medium contained various compounds of the formula I and formula II of the present invention to be tested (DMSO was used as solvent in all mother fluid), wherein the final concentration of each compound was 10 μM, the negative control was 1.5% DMSO solvent, and the positive control was lanosterol (10 μM). The HeLa cells were treated with the medium containing the test compound, 1.5% DMSO solvent and lanosterol for 3.5 hours, respectively, and the normal fresh medium containing no DMSO, test compound or lanosterol was exchanged and the cells were cultured for another 6.5 h, then Anti-p62 antibody and DAPI were used for routine cellular immunofluorescence detection. The field of vision of three positions per slide was randomly selected, the ratio of cells containing aggregated crystalline proteins (lens protein aggregates) was calculated, and the effect of each test compound on intracellular aggregation of mutant lens proteins was finally determined, the results were shown in Table 19.

[2] = Pharmacokinetic study, drug in aqueous humor after eye glass cavity injection (Example 5); type: in vivo; conditions: SD rats, 5 μl injected into each glass cavity, detected 10 days after the surgery
Method: SD rats (about 10 weeks old, male or female) were anesthetized by intraperitoneal injection of pentobarbital sodium and pupil was dilated, then eye glass cavity injection surgery was performed. All animals were injected with the same kind of drugs in both eyes. The amount of drug injected into each glass cavity was 5 μl, and the number of test animals per drug formulation (Example 1, Example 2 and Comparative Example 1) was four, and the drug metabolism in the aqueous humor was detected 10 days after the surgery.

[3] = test system: diabetic metabolite cataract; assay: Therapeutic effect on diabetic metabolite cataract, streptozotocin model (Example 11); type: in vivo, SD rats; conditions: right eye of diabetic rat, pictures before and after 2 months of treatment (FIG. 25-29)
[4] = Heat stability at 80° C. versus 4° C., HPLC and appearance (Example 18); type: physicochemical; conditions: for appearance after heat storage: compared with 4° C.
Method: The heatl stabilities of inotodiol and trametenolic acid were tested, and lanosterol was used as a reference at the same time.

SMILES | Inhibitory effect (percentage of cells containing aggregated proteins) [1] | other results
CC(C)(O)CCC[C@@H](C(=O)O)[C@H]1CC[C@@]2(C)C3=C(CC[C@]12C)[C@@]1(C)CC[C@H](O)C(C)(C)C1CC3 (some centres unmarked) [Compound 15′] | + (<30% of the cells in the field of vision contained protein aggregates) | –
C[C@H](C(O)C/C=C/C(=O)O)[C@H]1CC[C@@]2(C)C3=C(CC[C@]12C)[C@@]1(C)C[C@@H](F)[C@H](O)C(C)(C)C1CC3 (some centres unmarked) [Compound 42] | + (<30% of the cells in the field of vision contained protein aggregates) | –
CC(=O)[C@@H](C)[C@H]1CC[C@@]2(C)C3=C(CC[C@]12C)[C@@]1(C)CC[C@H](O)C(C)(C)C1CC3 (some centres unmarked) [Compound 6″] | ++ (>30% and <45% of the cells in the field of vision contained protein aggregates) | –
C=C(C)C(=O)CC(O)C(C)[C@H]1CC[C@@]2(C)C3=C(CC[C@]12C)[C@@]1(C)CC[C@H](O)C(C)(C)C1CC3 (some centres unmarked) [Compound 17″] | ++ (>30% and <45% of the cells in the field of vision contained protein aggregates) | –
C[C@H](C(O)CC(=O)C(C)(C)O)[C@H]1CC[C@@]2(C)C3=C(CC[C@]12C)[C@@]1(C)CC[C@H](O)C(C)(C)C1CC3 (some centres unmarked) [Compound 20] | ++ (>30% and <45% of the cells in the field of vision contained protein aggregates) | –
CC(C)=CCC[C@@H](C(=O)O)[C@H]1CC[C@@]2(C)C3=C(CC[C@]12C)[C@@]1(C)CC[C@H](O)C(C)(C)C1CC3 (some centres unmarked) [Trametenolic acid, trametenolic acid] | + (<30% of the cells in the field of vision contained protein aggregates) | decrease of drug concentration in aqueous humor compared with initial concentration immediately after injection [2]: 8%±1.5%; turbid area of lens / course of cataract after administration [3]: reduced in a large extent; appearance after heat storage ([4]; 80° C. for 1 week): did not change; purity after heat storage ([4]; 80° C. for 2 weeks): above 93%; appearance after heat storage ([4]; 80° C. for 2 weeks): no significant change in appearance and purity; content after heat storage ([4]; 80° C. for 1 day, HPLC): 97%; content after heat storage ([4]; 80° C. for 2 day, HPLC): 96%; content after heat storage ([4]; 80° C. for 3 day, HPLC): 96%; initial experiment purity ([4]; stored at 4° C., HPLC): 98%
C/C(=C\CC(O)[C@@H](C)[C@H]1CC[C@@]2(C)C3=C(CC[C@]12C)[C@@]1(C)CC[C@H](O)C(C)(C)C1CC3)CO (some centres unmarked) [Compound 32] | + (<30% of the cells in the field of vision contained protein aggregates) | –
COC(C)(C)C(O)CC(O)[C@@H](C)[C@H]1CC[C@@]2(C)C3=C(CC[C@]12C)[C@@]1(C)CC[C@H](O)C(C)(C)C1CC3 (some centres unmarked) [Compound 8″] | ++ (>30% and <45% of the cells in the field of vision contained protein aggregates) | –
C[C@H](C(O)CC(Br)C(C)(C)O)[C@H]1CC[C@@]2(C)C3=C(CC[C@]12C)[C@@]1(C)CC[C@H](O)C(C)(C)C1CC3 (some centres unmarked) [Compound 13] | ++ (>30% and <45% of the cells in the field of vision contained protein aggregates) | –
C[C@H](C(O)C/C=C/C(=O)O)[C@H]1CC[C@@]2(C)C3=C(CC[C@]12C)[C@@]1(C)CC[C@H](O)C(C)(C)C1CC3 (some centres unmarked) [Compound 34] | + (<30% of the cells in the field of vision contained protein aggregates) | –
C[C@H](C(O)CCC(C)(C)O)[C@H]1CC[C@@]2(C)C3=C(CC[C@]12C)[C@@]1(C)C[C@@H](F)[C@H](O)C(C)(C)C1CC3 (some centres unmarked) [Compound 23] | + (<30% of the cells in the field of vision contained protein aggregates) | –
CC(C)(O)CCC[C@@H](C(=O)O)[C@H]1CC[C@@]2(C)C3=CCC4C(C)(C)[C@@H](O)CC[C@]4(C)C3=CC[C@]12C (some centres unmarked) [Compound 21′] | ++ (>30% and <45% of the cells in the field of vision contained protein aggregates) | –
CC(=O)O[C@H]1CC[C@]2(C)C3=C(CCC2C1(C)C)[C@]1(C)CC[C@H]([C@H](C)C(O)CC2OC2(C)C)[C@@]1(C)CC3 (some centres unmarked) [Compound 10] | + (<30% of the cells in the field of vision contained protein aggregates) | –
CC(C)=CCC[C@H](C=O)[C@H]1CC[C@@]2(C)C3=C(CC[C@]12C)[C@@]1(C)CCC(=O)C(C)(C)C1CC3 (some centres unmarked) [Compound 5″] | ++ (>30% and <45% of the cells in the field of vision contained protein aggregates) | –
C=C(C)C(=O)CC[C@@H](C(=O)O)[C@H]1CC[C@@]2(C)C3=C(CC[C@]12C)[C@@]1(C)CC[C@H](O)C(C)(C)C1CC3 (some centres unmarked) [Compound 7″] | ++ (>30% and <45% of the cells in the field of vision contained protein aggregates) | –
C[C@H](C(O)C/C=N/O)[C@H]1CC[C@@]2(C)C3=C(CC[C@]12C)[C@@]1(C)CC[C@H](O)C(C)(C)C1CC3 (some centres unmarked) [Compound 5] | + (<30% of the cells in the field of vision contained protein aggregates) | –
C[C@H](C(O)CCC(C)(C)O)[C@H]1CC[C@@]2(C)C3=C(CC[C@]12C)[C@@]1(C)C[C@@H](O)[C@H](O)C(C)(C)C1CC3 (some centres unmarked) [Compound 25] | + (<30% of the cells in the field of vision contained protein aggregates) | –
C/C(=C\CC(O)[C@@H](C)[C@H]1CC[C@@]2(C)C3=C(CC[C@]12C)[C@@]1(C)CC[C@H](O)C(C)(C)C1CC3)C(=O)O (some centres unmarked) [Compound 27] | + (<30% of the cells in the field of vision contained protein aggregates) | –
CC(C)(O)C(=O)CC[C@@H](C(=O)O)[C@H]1CC[C@@]2(C)C3=C(CC[C@]12C)[C@@]1(C)CC[C@H](O)C(C)(C)C1CC3 (some centres unmarked) [Compound 20′] | ++ (>30% and <45% of the cells in the field of vision contained protein aggregates) | –
C[C@H](C(O)CCC(C)(C)O)[C@H]1CC[C@@]2(C)C3=C(CC[C@]12C)[C@@]1(C)C[C@@H](F)[C@@H](O)C(C)(C)C1CC3 (some centres unmarked) [Compound 24] | + (<30% of the cells in the field of vision contained protein aggregates) | –
C[C@H](C(O)/C=C/C(C)(C)O)[C@H]1CC[C@@]2(C)C3=C(CC[C@]12C)[C@@]1(C)CC[C@H](O)C(C)(C)C1CC3 (some centres unmarked) [Compound 4″] | + (<30% of the cells in the field of vision contained protein aggregates) | –
CO[C@H]1CC[C@]2(C)C3=C(CCC2C1(C)C)[C@]1(C)CC[C@H]([C@H](C)C(O)CCC(C)(C)OC)[C@@]1(C)CC3 (some centres unmarked) [Compound 9] | ++ (>30% and <45% of the cells in the field of vision contained protein aggregates) | –
C[C@H](C(O)CCC(C)(C)O)[C@H]1CC[C@@]2(C)C3=C(CC[C@]12C)[C@@]1(C)CC[C@H](O)C(C)(C)C1CC3 (some centres unmarked) [Compound 15] | + (<30% of the cells in the field of vision contained protein aggregates) | –
C[C@H](C(O)CCC(C)(C)O)[C@H]1CC[C@@]2(C)C3=CCC4C(C)(C)[C@@H](O)CC[C@]4(C)C3=CC[C@]12C (some centres unmarked) [Compound 21] | + (<30% of the cells in the field of vision contained protein aggregates) | –
C[C@H](C(O)CC(O)C(C)(C)O)[C@H]1CC[C@@]2(C)C3=C(CC[C@]12C)[C@@]1(C)CC[C@H](O)C(C)(C)C1CC3 (some centres unmarked) [Compound 17] | ++ (>30% and <45% of the cells in the field of vision contained protein aggregates) | –
CC(C)=CCCC(C=O)[C@H]1CC[C@@]2(C)C3=C(CC[C@]12C)[C@@]1(C)CC[C@H](O)C(C)(C)C1CC3 (some centres unmarked) [Compound 2″] | ++ (>30% and <45% of the cells in the field of vision contained protein aggregates) | –
